According to US11426441B2, “Composition comprising protein phosphatase 1 inhibitory peptide for treating vascular diseases” (BethphaGen Inc., priority 2016, dated 2022):

Key:
SERCA2a [1] = assay: A23187-induced SERCA2a degradation in HCSMCs; type: cell-based, human
Method: (§1) FIGS. 4a, 4b, 4c and 4d. (4a-4c) HCSMCs were pretreated with 3 μM ψPLB-SE and 15 μM MDL28170 for 1 hour, and then treated with 50 μM A23187 for 2 hours. (4a) Immunostaining was performed with antibodies against SERCA2a and SERCA2b (green). Nuclei were stained with Hoechst (blue). Representative merged images are shown. Scale bar, 50 μm. (4b) Western blot analysis was performed with cell extracts. Data are expressed as the means±SD (n=3-4; *, P<0.05). (4c) Baseline Ca^2+ concentration was measured by lonOptix calcium imaging system. (4d) RASMC were treated with ψPLB-SE or control peptide under the same conditions as described for FIG. 1B. The baseline Ca^2+ concentration was measured by lonOptix calcium imaging system (*, P<0.05).
The rat aortic smooth muscle cells (RASMCs) were isolated from the medial layer of the thoracic aorta derived from male Sprague-Dawley rats (body weight, 180-200 g) by an enzymatic reaction with collagenase (50 U/mL, Worthington) and pancreatic elastase (0.25 mg/mL, Sigma-Aldrich) for 4 hours at 37. The cells were collected and resuspended in DMEM containing 20% (v/v) fetal bovine serum. The resuspension was then plated on collagen I (Sigma-Aldrich)-coated glass coverslips and incubated at 37 in an atmosphere of 5% (v/v) CO2 and 95% (v/v) air. Human coronary smooth muscle cells (HCSMCs), pulmonary arterial endothelial cells (PAECs), and pulmonary arterial smooth muscle cells (PASMCs) were purchased from Lonza and cultured in EBM or SmBM (Lonza) supplemented with 0.5 mg/mL hEGF, […], 1 mg/mL hFGF, […] gentamicin/amphotericin-B, and 5% fetal bovine serum. All the cells were cultured at 37 in 5% (v/v) CO2 and 95% (v/v) air. RASMCs and HCSMCs were, respectively, plated at the densities of 1×10^4 cells/cm^2 and 1×10^5 cells/cm^2 for immunostaining and western blotting experiments. […]
Vascular smooth muscle cells (VSMCs) were homogenized in a minimal volume of 50 mM Tris-HCl, pH 7.4, supplemented with a broad-spectrum protease inhibitor cocktail (Calbiochem). […] The blots were scanned and quantified using LAS software.

cytosolic Ca^2+ level = assay: Intracellular Ca2+ measurement in HCSMCs; type: cell-based, human
Method: as §1
The intracellular Ca^2+ level was measured in VSMCs by loading cells with 0.5 μM Fura2-AM (Molecular Probes, Eugene Oreg., USA), a Ca^2+-sensitive indicator, for 15 minutes at 37. The fluorescence was recorded using the lonOptix calcium imaging system. VSMCs were stimulated by the exposure to light emitted by a 75 W halogen lamp through either a 340 nm or 380 nm filter. The fluorescent emissions were detected between 480 nm and 520 nm by a photomultiplier tube after an initial illumination at 340 nm for 0.5 second and then at 380 nm during recording. The 340 nm excitation scan was repeated at the end of the protocol, and qualitative changes in the intracellular Ca^2+ level were inferred from the ratio of the Fura2 fluorescent intensity at both wavelengths.

eNOS and Akt = eNOS and Akt phosphorylation in PAECs (western blotting); type: cell-based; conditions: 100 nM okadaic acid
Method: FIGS. 16a, 16b and 16c. (16a-16b) PAECs were treated with 3 μM ψPLB-SE for 1 hour, and protein expression was quantitatively analyzed through western blotting using antibodies against Phospho-eNOS (ser1177), total eNOS, phospho-Akt (Ser473, Thr308), total Akt, and GAPDH. (16c) The pulmonary tissue lysate was subjected to immunoprecipitation using PP1 antibody to investigate the interactions of PP1 with eNOS and Akt depending on the presence or absence of the treatment with ψPLB-SE using respective antibodies therefor.
FIGS. 17a, 17b and 17c. (17a) PAECs were treated with 50 μM LY294002, a PI3K inhibitor, for 24 hours, and then treated with 3 μM ψPLB-SE for 1 hour. Protein expression was quantitatively analyzed through western blotting using antibodies against Phospho-eNOS (ser1177), total eNOS, phospho-Akt (Ser473, Thr308), total Akt, and GAPDH. (17b) PAECs were treated with 10 μM inhibitor IV, an Akt inhibitor, for 2 hours, and then treated with 3 μM ψPLB-SE for 1 hour. Protein expression was quantitatively analyzed through western blotting using antibodies against total eNOS and GAPDH. (17c) PAECs were treated with 100 nM OA, a PP1 inhibitor, for 24 hours, and then treated with 3 μM ψPLB-SE for 1 hour. Protein expression was quantitatively analyzed through western blotting using antibodies against Phospho-eNOS (ser1177), total eNOS, phospho-Akt (Ser473, Thr308), total Akt, and GAPDH.
ψPLB-SE (RAE16TIEMPQ; SEQ ID NO: 2) was derived from the PLB protein sequence surrounding the Ser16 phosphorylation site. To facilitate uptake into cells, the peptide was conjugated to the cell penetrating peptide dNP2 ([…]; SEQ ID NO: 21) or TAT (YGRKKRRQRRR; SEQ ID NO: 22). The peptides used in the present invention were PLB-SE (RAETIEMPQ; SEQ ID NO: 2) and control peptide (RASTIEMPQ; SEQ ID NO: 23). PLB-SE and cell penetrating peptide were connected by a linker peptide (GGG; SEQ ID NO: 24) The peptides (purity of 95% or higher, AnyGen, Gwangju, Korea) was resuspended in double-distilled water or physiological saline at a stock concentration of 3 mM (cells), 2.5 mg/ml (rats), or 500 μg/ml (mice). The rats were treated with 1 mg/kg peptides and mice were treated with 2 mg/kg peptides. The rat aortic smooth muscle cells (RASMCs), human coronary smooth muscle cells (HCSMCs), pulmonary arterial endothelial cells (PAECs), and pulmonary arterial smooth muscle cells (PASMCs) were treated with the peptides at a final concentration of 3 μM for 1 hour. The PI3K inhibitor LY294002 (Millipore, USA), the Akt inhibitor Inhibitor IV (Calbiochem, USA), and the PP1 inhibitor okadaic acid (Sigma Aldrich, USA), used in the experiments using pulmonary arterial endothelial cells (PAECs), were purchased. For the monocrotaline aqueous solution, the monocrotaline powder (Sigma Aldrich, USA) was dissolved in a small amount of a 1 M hydrochloric acid solution (HCL), diluted with sterilized distilled water, and adjusted to pH 7.35 by addition of sodium hydroxide (NaOH). The animals were bred and observed in the same conditions as in the control group during the experiment periods. In addition, the calcium ionophore A23187 and the calpain I and II inhibitors MDL28170 and […] were purchased from Sigma-Aldrich (St. Louis, Mo., USA).
Vascular smooth muscle cells (VSMCs) were homogenized in a minimal volume of 50 mM Tris-HCl, pH 7.4, supplemented with a broad-spectrum protease inhibitor cocktail (Calbiochem). The proteins were separated by SDS-PAGE and then transferred to polyvinylidene fluoride membranes (Schleicher & Schuell). After blocking with 5% (w/v) non-fat milk for 1 hour and washing with TBST, the membranes were incubated with antibodies against SERCA2a, SERCA2b (21st century biochemical), PCNA (abcam), GAPDH (Sigma-Aldrich), phospho-eNOS, eNOS, phospho-eIF2α, eIF2α (cell signaling), Vimentin, α-SMA, BMPR2 (Santa cruz), phospho-Akt, Akt (cell signaling), phospho-phospholamban (Merck), and Phospholamban (cell signaling). […]

[2] = tested on: rat aortic smooth muscle cells (RASMCs); assay: RASMC proliferation (PCNA immunostaining, EZ-CyTox cell viability assay); type: cell-based; conditions: RASMCs, synthetic conditions, calpain inhibitor
Method: The rat aortic smooth muscle cells (RASMCs) were isolated from the medial layer of the thoracic aorta derived from male Sprague-Dawley rats (body weight, 180-200 g) by an enzymatic reaction with collagenase (50 U/mL, Worthington) and pancreatic elastase (0.25 mg/mL, Sigma-Aldrich) for 4 hours at 37. The cells were collected and resuspended in DMEM containing 20% (v/v) fetal bovine serum. The resuspension was then plated on collagen I (Sigma-Aldrich)-coated glass coverslips and incubated at 37 in an atmosphere of 5% (v/v) CO2 and 95% (v/v) air. Human coronary smooth muscle cells (HCSMCs), pulmonary arterial endothelial cells (PAECs), and pulmonary arterial smooth muscle cells (PASMCs) were purchased from Lonza and cultured in EBM or SmBM (Lonza) supplemented with 0.5 mg/mL hEGF, […], 1 mg/mL hFGF, […] gentamicin/amphotericin-B, and 5% fetal bovine serum. All the cells were cultured at 37 in 5% (v/v) CO2 and 95% (v/v) air. RASMCs and HCSMCs were, respectively, plated at the densities of 1×10^4 cells/cm^2 and 1×10^5 cells/cm^2 for immunostaining and western blotting experiments. For RASMC and PASMC cell proliferation experiments, these cells were cultured in fetal bovine serum-free media for 3 days, and then proliferation was induced by serum addition.
Rat aortic smooth muscle cells (RASMCs) were fixed in 4% (w/v) paraformaldehyde at room temperature for 10 min, washed with PBS, and then transmitted with 0.1% (v/v) Triton X-100 in PBS for 40 min. After washing and blocking with 3% (w/v) BSA in PBS, the cells were incubated overnight at room temperature with antibodies against SERCA2a (1:250), SERCA2b (1:250), and PCNA (1:50). On the following day, the cells were washed with PBS and incubated with anti-rabbit and anti-mouse IgG conjugated to Alexa Fluor 488 and 594, respectively, for 1 hour at room temperature. The cells were treated with FluoroGuard antifade reagent (Bio-Rad, Hercules, Calif., USA), and the coverslips were examined under a fluorescent microscope. […]

SERCA2a [3] = assay: SERCA2a level and stability in RASMCs (immunostaining, western blotting); type: cell-based, rat; conditions: synthetic conditions, calpain inhibitor
Method: Rat aortic smooth muscle cells (RASMCs) were fixed in 4% (w/v) paraformaldehyde at room temperature for 10 min, washed with PBS, and then transmitted with 0.1% (v/v) Triton X-100 in PBS for 40 min. After washing and blocking with 3% (w/v) BSA in PBS, the cells were incubated overnight at room temperature with antibodies against SERCA2a (1:250), SERCA2b (1:250), and PCNA (1:50). On the following day, the cells were washed with PBS and incubated with anti-rabbit and anti-mouse IgG conjugated to Alexa Fluor 488 and 594, respectively, for 1 hour at room temperature. The cells were treated with FluoroGuard antifade reagent (Bio-Rad, Hercules, Calif., USA), and the coverslips were examined under a fluorescent microscope.
Vascular smooth muscle cells (VSMCs) were homogenized in a minimal volume of 50 mM Tris-HCl, pH 7.4, supplemented with a broad-spectrum protease inhibitor cocktail (Calbiochem). The proteins were separated by SDS-PAGE and then transferred to polyvinylidene fluoride membranes (Schleicher & Schuell). After blocking with 5% (w/v) non-fat milk for 1 hour and washing with TBST, the membranes were incubated with antibodies against SERCA2a, SERCA2b (21st century biochemical), PCNA (abcam), GAPDH (Sigma-Aldrich), phospho-eNOS, eNOS, phospho-eIF2α, eIF2α (cell signaling), Vimentin, α-SMA, BMPR2 (Santa cruz), phospho-Akt, Akt (cell signaling), phospho-phospholamban (Merck), and Phospholamban (cell signaling). The membranes were then incubated with horseradish peroxidase-conjugated secondary antibodies (Jackson ImmunoResearch, West Grove, Pa., USA) and developed using a chemiluminescent substrate (Dogen). The blots were scanned and quantified using LAS software.
RASMCs were cultured in DMEM supplemented with 0.1% (v/v) FBS (Contractile) or in DMEM supplemented with 10% (v/v) FBS (Synthetic) in the presence of 3 μM control or ψPLB-SE peptide. Cycloheximide (Sigma) was added to media to a final concentration of 5 μg/ml. Cells were harvested after 0, 3, and 5 days of incubation and their protein extracts were subjected to western blotting.

[4] = HCSMCs, 50 μM A23187 for 2 hours
[5] = HCSMCs pretreated 1 hour with 3 μM ψPLB-SE or 15 μM MDL28170, then 50 μM A23187 2 hours

## CNc1ccc2oc(C[C@H]3O[C@@]4(CC[C@H]3C)O[C@H]([C@H](C)C(=O)c3ccc[nH]3)[C@H](C)C[C@H]4C)nc2c1C(=O)O [A23187]
SERCA2a [1]; [4]
  degradation of SERCA2a: evoked the degradation
Cytosolic Ca^2+ level; [4]
  cytosolic Ca^2+ level: elevation

## C=C1[C@@H](O)[C@@H]2O[C@]3(CC[C@H](/C=C/[C@@H](C)[C@@H]4CC(C)=C[C@@]5(O[C@H](C[C@@](C)(O)C(=O)O)CC[C@H]5O)O4)O3)CC[C@H]2O[C@@H]1[C@@H](O)C[C@H](C)[C@H]1O[C@@]2(CCCCO2)CC[C@H]1C [okadaic acid, reference compound]
eNOS and Akt
  phosphorylation of Akt and eNOS: increased

## MDL28170 [reference compound]
[2]
  PCNA level: decreased
SERCA2a [3]
  degradation of SERCA2a (immunostaining): inhibited
  degradation of SERCA2a (western blotting): protective effect
SERCA2a [1]; [5]
  A23187 (Ca^2+)-dependent degradation of SERCA2a: completely blocked
Cytosolic Ca^2+ level; [5]
  elevation of the cytosolic Ca^2+ level by A23187: not
